The nature of data set [1]: Distribution coefficient, logD between n-octonol and aqueous PBS buffer at pH 5.4 by LC-MS analysis detection based shake flask method. The following applies: n-octanol/aqueous PBS buffer. Format: physicochemical.
Data set [2] in a line: Distribution coefficient, logD between n-octonol and aqueous MOPS buffer at pH 7.4 by LC-MS analysis detection based shake flask method. The class given is physicochemical. To be noted: n-octanol/aqueous MOPS buffer.
Data set [3] deals with T1, Kappa-type opioid receptor (Homo sapiens, UniProt P41145). The experiment in a line: Agonist activity at kappa opioid receptor in ATP stimulated human HaCaT cells assessed as reduction in intracellular Ca2+ release at 1 uM after 45 mins by FURA-2AM dye based luminescence spectrophotometry method. The class given is functional, cell-based.
T1 sequence (P41145 whole entry): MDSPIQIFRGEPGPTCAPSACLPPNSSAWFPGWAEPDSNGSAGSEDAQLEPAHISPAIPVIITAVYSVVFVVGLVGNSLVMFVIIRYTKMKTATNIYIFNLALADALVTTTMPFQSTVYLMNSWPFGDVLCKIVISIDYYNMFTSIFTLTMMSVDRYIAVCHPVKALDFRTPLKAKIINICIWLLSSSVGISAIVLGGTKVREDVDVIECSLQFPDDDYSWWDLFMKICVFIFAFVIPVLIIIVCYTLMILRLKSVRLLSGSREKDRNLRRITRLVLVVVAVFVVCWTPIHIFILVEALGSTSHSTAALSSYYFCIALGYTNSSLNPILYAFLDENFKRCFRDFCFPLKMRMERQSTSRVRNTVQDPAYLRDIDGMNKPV
In data set [4] the target is T1, Kappa-type opioid receptor. Put plainly: Agonist activity at human kappa opioid receptor expressed in HEK-293 cells after 45 mins by [35S]GTP-gamma-S binding assay in presence of 10 uM of GDP. The class given is cell-based, HEK293. Background: GTPγS resists hydrolysis and so accumulates on activated G proteins.
In data set [5] the test system is CHO-K1. The experiment in a line: Selectivity index, ratio of Ki for human delta opioid receptor expressed in CHO-K1 cells to guinea pig kappa opioid receptor. Format: cell-based.
In data set [6] the test system is CHO-K1. The experiment in a line: Selectivity index, ratio of Ki for human delta opioid receptor expressed in CHO-K1 cells to Ki for human kappa opioid receptor expressed on HEK-293 cells. The class given is cell-based.
Data set [7] deals with T1, Kappa-type opioid receptor. Put plainly: biochemical. Format: cell-based, HEK293.
Description: Displacement of [3H]Cl-977 from human kappa opioid receptor expressed on HEK-293 cells by liquid scintillation counting method
The species entered for the next data set is Rattus norvegicus. The experiment in a line: Displacement of [3H]DTG from rat sigma2 receptor at 10 uM after 120 mins by liquid scintillation counting method.
Data set [8] has as its target T1, Kappa-type opioid receptor. Put plainly: Agonist activity at human kappa opioid receptor expressed in HEK-293 cells after 45 mins by [35S]GTP-gamma-S binding assay in presence of 10 uM of GDP relative to U-69,593. The class given is cell-based. The following applies: HEK293.
The test system of data set [9] is CHO-K1. The experiment in a line: Selectivity index, ratio of Ki for human mu opioid receptor expressed in CHO-K1 cells to Ki for human kappa opioid receptor expressed on HEK-293 cells. Format: cell-based.
For another data set, the species on record is Sus scrofa. The experiment in a line: Displacement of [3H]MK-801 from pig N-methyl D-aspartate receptor phencyclidine binding site at 10 uM after 150 min by liquid scintillation counting method.
The target in data set [10] is Delta-type opioid receptor (Homo sapiens) (UniProt P41143). The experiment in a line: Displacement of [3H]deltrophine from human delta opioid receptor expressed in CHO-K1 cells at 10 uM after 150 mins by liquid scintillation counting method. Format: cell-based.
Sequence of Delta-type opioid receptor (Homo sapiens) (P41143 whole entry): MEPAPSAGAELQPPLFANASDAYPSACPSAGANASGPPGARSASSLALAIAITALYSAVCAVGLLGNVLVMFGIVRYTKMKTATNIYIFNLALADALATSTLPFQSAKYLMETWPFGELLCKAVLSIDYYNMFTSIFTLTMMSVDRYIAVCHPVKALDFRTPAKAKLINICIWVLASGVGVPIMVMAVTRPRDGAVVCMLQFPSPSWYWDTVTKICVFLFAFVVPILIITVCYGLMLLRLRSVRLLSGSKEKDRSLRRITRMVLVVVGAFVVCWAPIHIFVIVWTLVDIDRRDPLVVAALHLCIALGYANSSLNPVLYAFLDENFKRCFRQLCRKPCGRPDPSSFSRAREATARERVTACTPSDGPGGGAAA
Data set [11] concerns the target Sigma non-opioid intracellular receptor 1 (Cavia porcellus) (UniProt Q60492). Put plainly: Displacement of [3H]-(+)-pentazocine from guinea pig Sigma1-receptor at 10 uM after 120 mins by liquid scintillation counting method.
Data set [12] deals with CHO-K1. The experiment in a line: Selectivity index, ratio of Ki for human mu opioid receptor expressed in CHO-K1 cells to guinea pig kappa opioid receptor. Format: cell-based.
For the next data set, the target named is Mu-type opioid receptor (Homo sapiens, UniProt P35372). Put plainly: biochemical. The class given is cell-based, CHO-K1.
Sequence of Mu-type opioid receptor (P35372 whole entry): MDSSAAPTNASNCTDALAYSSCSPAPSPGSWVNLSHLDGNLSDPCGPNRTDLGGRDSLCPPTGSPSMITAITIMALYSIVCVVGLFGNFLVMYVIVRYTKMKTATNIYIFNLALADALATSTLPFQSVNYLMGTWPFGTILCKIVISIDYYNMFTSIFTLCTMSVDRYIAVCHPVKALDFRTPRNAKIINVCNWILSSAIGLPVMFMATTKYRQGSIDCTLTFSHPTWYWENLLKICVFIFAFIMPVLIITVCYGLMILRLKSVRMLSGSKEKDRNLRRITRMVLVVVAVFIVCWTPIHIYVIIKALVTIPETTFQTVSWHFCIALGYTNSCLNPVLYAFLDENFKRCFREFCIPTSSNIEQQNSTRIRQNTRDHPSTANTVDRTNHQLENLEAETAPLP
For data set [13], the target named is Kappa-type opioid receptor (Cavia porcellus, UniProt P41144). Put plainly: Displacement of [3H]U-69,593 from kappa opioid receptor in guinea pig brain membarnes by liquid scintillation counting method. In general terms: Displacement assays read how much labelled ligand stays bound in the presence of the test substance.
Sequence of Kappa-type opioid receptor (Cavia porcellus, UniProt P41144) (P41144 whole entry): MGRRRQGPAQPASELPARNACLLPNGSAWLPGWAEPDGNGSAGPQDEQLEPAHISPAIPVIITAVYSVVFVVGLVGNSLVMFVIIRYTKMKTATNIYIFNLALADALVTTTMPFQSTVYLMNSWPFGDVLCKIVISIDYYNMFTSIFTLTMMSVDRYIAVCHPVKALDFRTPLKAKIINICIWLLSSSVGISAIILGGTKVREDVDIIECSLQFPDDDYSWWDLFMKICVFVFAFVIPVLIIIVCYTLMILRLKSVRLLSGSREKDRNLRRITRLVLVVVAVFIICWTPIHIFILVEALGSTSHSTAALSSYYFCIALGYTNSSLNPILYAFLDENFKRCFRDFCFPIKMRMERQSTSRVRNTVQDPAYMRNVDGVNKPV

The source made the active and inactive calls. The rule behind the calls is not given here.

Sequence of Sigma non-opioid intracellular receptor 1 (Cavia porcellus) (Q60492 whole entry): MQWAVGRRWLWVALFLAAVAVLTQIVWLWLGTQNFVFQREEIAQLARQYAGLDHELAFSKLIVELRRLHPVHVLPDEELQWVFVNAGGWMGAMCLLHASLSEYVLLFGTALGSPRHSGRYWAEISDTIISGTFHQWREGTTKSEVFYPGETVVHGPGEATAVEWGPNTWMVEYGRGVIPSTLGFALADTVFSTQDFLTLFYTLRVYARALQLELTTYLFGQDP

A word on the logD: it is lipophilicity at a set pH, counting ionised and neutral species. Read a high logD as a more lipophilic compound. With `COC(=O)N1CCN(C(=O)Cc2ccc(Cl)c(Cl)c2)C2C(N3CCCC3)CCCC21` (stereo not drawn), the results for the log distribution coefficient (logD) in [1] and in [2] were 0.39 and 1.29, respectively.

What is called inhibition is how much of the control response was suppressed. `CN(C(=O)/C=C/c1ccoc1)[C@@H]1CC[C@@]2(O)[C@H]3Cc4ccc(O)c5c4[C@@]2(CCN3CC2CC2)[C@H]1O5`: in [3], the inhibition was determined as 40%.

With `O=C(Cc1ccc(Cl)c(Cl)c1)N1CCNC2CCCC(N3CCC(O)C3)C21` (mixture of isomers), the logD in [1] was -2.47; in data set [2], 0.23.

The EC50 is the midpoint of the concentration-response curve. For the compound `COC(=O)N1CCN(C(=O)Cc2ccc(Cl)c(Cl)c2)C2C(N3CCC(O)C3)CCCC21` (mixture of isomers), in data set [4], the EC50 is 0.079 µM. For the same compound, the logD was determined as 0.04 in data set [1] and 1.31 in data set [2]. Besides, the inhibition entry in data set [3] was “Active”.

For orientation: Ki means a measure of affinity in units of concentration, obtained from inhibition or displacement. As to `O=C(Cc1ccc(Cl)c(Cl)c1)N1CCN(Cc2cccnc2)C2CCCC(N3CCC(O)C3)C21` (mixture of isomers), the Ratio Ki with CHO-K1 [5] came out at 1000; in the data set on CHO-K1 [6], 100; in the data set with CHO-K1 [9], 100; in the data set with CHO-K1 [12], 1000. The logD in data set [1] is -0.39; in data set [2] it was 1.26. The inhibition entry in data set [3] is “Active”. In addition, the inhibition constant (Ki) was 0.031 µM in data set [7] and 3.48 µM on Mu-type opioid receptor. Besides, the inhibition in the data set filed under Rattus norvegicus was 23%; in [10], 35%; in data set [11], 10%. Moreover, in data set [8], the Intrinsic activity stood at 100%. Also, the inhibition entry in the data set listed under Sus scrofa was “inactive”.

Take `O=C(Cc1ccc(Cl)c(Cl)c1)N1CCN(Cc2cccnc2)C2CCCC(N3CCCC3)C21` (racemic): the Ratio Ki in the data set on CHO-K1 [5] is greater than 10000; in the data set with CHO-K1 [6] it was 100; in the data set on CHO-K1 [9], 100; in the data set with CHO-K1 [12], greater than 10000. In addition, the figures for the pH-dependent lipophilicity (logD) in data set [1] and in [2] were -0.45 and 1.1, respectively. The inhibition result in data set [3] is “Active”. Moreover, the results for the Ki (in [7]; in data set [13]; on Mu-type opioid receptor) were 0.022 µM, 0.00013 µM and 2.46 µM, respectively. Further, the results for the inhibition (in the data set filed under Rattus norvegicus; in data set [10]; in data set [11]) were 1%, 40% and 20%, respectively. In addition, the Intrinsic activity in data set [8] came out at 100%. Also, the inhibition entry in the data set filed under Sus scrofa is “inactive”.
